{"source": "paper PMC9308172", "about": "(Journal of medicinal chemistry, 2017)", "data": [{"test_system": "A/California/07/2009 (H1N1) M2: N31", "conditions": "cited from earlier work", "values": [{"compound": "CCCC1(N)C2CC3CC(C2)CC1C3", "note": "(stereo not shown) [Compound 5]", "blockage of full-length S31N M2 protein in electrophysiology (EP) studies": "no blockage"}]}, {"test_system": "A/WSN/33-M2-N31S", "assay_type": "cell-based, Influenza virus A/WSN/33 (H1N1)", "conditions": "read-out: IC50 A/WSN/33-M2-N31S", "units": {"IC50": "µM"}, "values": [{"compound": "CC12CC3CC(CC(C3)C13CCCN3)C2", "note": "(stereo not shown) [Compound 8, 1′-Methylspiro[pyrrolidine-2,2′-adamantane]]", "IC50": "6.12 ± 2.59"}, {"compound": "NC1C2CC3CC(C2)CC1C3", "note": "(stereo not shown) [Compound 2]", "IC50": "0.42 ± 0.46"}, {"compound": "CC1(N)C2CC3CC(C2)CC1C3", "note": "(stereo not shown) [Compound 3]", "IC50": "0.33 ± 0.1"}, {"compound": "NC12CC3CC(CC(C3)C1)C2", "note": "[Compound 1, Amantadine, reference compound]", "IC50": "0.27 ± 0.16"}, {"compound": "C1CNC2(C1)C1CC3CC(C1)CC2C3", "note": "(stereo not shown) [Compound 6]", "IC50": "0.34 ± 0.08"}, {"compound": "NC1(C23CC4CC(CC(C4)C2)C3)CCCC1", "note": "[Compound 9]", "IC50": "4.34 ± 2.94"}, {"compound": "CN1CCCC12C1CC3CC(C1)CC2C3", "note": "(stereo not shown) [Compound 7]", "IC50": "0.9 ± 0.29"}, {"compound": "CCC1(N)C2CC3CC(C2)CC1C3", "note": "(stereo not shown) [Compound 4]", "IC50": "0.34 ± 0.26"}, {"compound": "CCCC1(N)C2CC3CC(C2)CC1C3", "note": "(stereo not shown) [Compound 5]", "IC50": "0.34 ± 0.1"}]}]}
